Earlier results on nine compounds are cited in patent US6027728A, “Herbal skin regeneration composition and method” (priority 1998, dated 2000).

Each structure is given as a SMILES string.

One data set relates to Na+,K(+)-ATPase.
Conditions: not given
In the case of `C[C@]12C[C@@H](O)[C@@H]3C[C@@]1(O[C@@H]1O[C@H](CO)[C@@H](O)[C@H](O)[C@H]1O)[C@@]3(COC(=O)c1ccccc1)C(=O)O2` [albiflorin], the “inhibition of Na+,K(+)-ATPase activity (in words)” value (shortened to “inhibition … (in words)”) was “ineffective”. Turning to `Oc1ccccc1` [phenol], the “inhibition … (in words)” value is recorded as “ineffective”.

Take `O=C(O)c1ccccc1` [benzoic acid]: the “inhibition … (in words)” value is listed as “weakly inhibitory”.

Turning to `C[C@@]12C[C@@]3(O)O[C@@H](O1)[C@]1(COC(=O)c4ccccc4)[C@H]3C[C@@]12O[C@@H]1O[C@H](CO)[C@@H](O)[C@H](O)[C@H]1O` [paeoniflorin], the “inhibition … (in words)” value was “ineffective”. In the case of `C[C@@]12C[C@@]3(O)O[C@@H](O1)[C@]1(COC(=O)c4ccc(O)cc4)[C@H]3C[C@@]12O[C@@H]1O[C@H](CO)[C@@H](O)[C@H](O)[C@H]1O` [oxypaeoniflorin], the “inhibition … (in words)” value is “ineffective”. Take `C[C@@]12C[C@@]3(O)O[C@@H](O1)[C@]1(COC(=O)c4ccccc4)[C@H]3C[C@@]12O[C@@H]1O[C@H](COC(=O)c2cc(O)c(O)c(O)c2)[C@@H](O)[C@H](O)[C@H]1O` [galloylpaeoniflorin]: the “inhibition … (in words)” value is given as “weakly inhibitory”. `COc1ccc(C(C)=O)c(O)c1` [paconol]: the “inhibition … (in words)” value is “ineffective”. `Oc1cc(O)c2c(c1)OC(c1ccc(O)c(O)c1)C(O)C2` (stereo not drawn) [catechin]: the “inhibition … (in words)” value is given as “weakly inhibitory”.

The data set is the same for the next values; noted with them: with respect to ATP.
As to `O=C(OC[C@H]1O[C@@H](OC(=O)c2cc(O)c(O)c(O)c2)[C@H](OC(=O)c2cc(O)c(O)c(O)c2)[C@@H](OC(=O)c2cc(O)c(O)c(O)c2)[C@@H]1OC(=O)c1cc(O)c(O)c(O)c1)c1cc(O)c(O)c(O)c1` [PGG, 1,2,3,4,6-Penta-O-galloyl-beta-D-glucose], the “inhibition mode with respect to ATP” value is “noncompetitive”.
